One experiment has as its target Human H3R (Homo sapiens, UniProt Q9Y5N1). As to the kind of experiment: Radioligand displacement assay, [3H]-N-α-methylhistamine binding.
The target of a further experiment is hH1R (Homo sapiens, UniProt P35367). As to the kind of experiment: Inositol phosphate. The note with it: for functional character in histamine stimulated InsP accumulation assays: HEK293T cells transiently transfected with hH1R. In kind it is cell-based.
In the next experiment the target is H1 receptor. The note with it: read-out: Ki H1 receptor (ChEMBLdb); known activity in ChEMBLdb ref 28; cited from earlier work.
A further experiment concerns the target human H1R (Homo sapiens, UniProt P35367). Briefly: Radioligand displacement assay, [3H]-mepyramine binding. The note with it: displacement of [3H]-mepyramine, membranes of HEK293T cells transiently expressing human H1R; mean ± SEM, at least three independent measurements. For orientation: Loss of bound radioactivity is the signal in a displacement assay; it reports binding, not function.

The structures appear in SMILES notation. Some results are limits rather than exact numbers.

Sequence of hH1R (P35367 whole entry): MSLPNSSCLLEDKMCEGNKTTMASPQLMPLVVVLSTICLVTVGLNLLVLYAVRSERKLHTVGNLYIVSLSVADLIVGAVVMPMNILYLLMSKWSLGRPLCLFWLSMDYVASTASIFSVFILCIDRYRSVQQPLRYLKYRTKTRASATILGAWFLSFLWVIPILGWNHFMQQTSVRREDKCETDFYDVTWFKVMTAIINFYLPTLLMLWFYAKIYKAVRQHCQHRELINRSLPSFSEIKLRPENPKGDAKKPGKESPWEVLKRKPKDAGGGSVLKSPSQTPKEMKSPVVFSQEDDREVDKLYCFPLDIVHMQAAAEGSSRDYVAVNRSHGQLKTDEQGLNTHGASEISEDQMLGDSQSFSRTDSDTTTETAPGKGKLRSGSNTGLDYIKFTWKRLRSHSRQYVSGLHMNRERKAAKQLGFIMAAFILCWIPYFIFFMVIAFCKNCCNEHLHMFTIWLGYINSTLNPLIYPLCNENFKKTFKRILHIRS
Sequence of Human H3R (Q9Y5N1 whole entry): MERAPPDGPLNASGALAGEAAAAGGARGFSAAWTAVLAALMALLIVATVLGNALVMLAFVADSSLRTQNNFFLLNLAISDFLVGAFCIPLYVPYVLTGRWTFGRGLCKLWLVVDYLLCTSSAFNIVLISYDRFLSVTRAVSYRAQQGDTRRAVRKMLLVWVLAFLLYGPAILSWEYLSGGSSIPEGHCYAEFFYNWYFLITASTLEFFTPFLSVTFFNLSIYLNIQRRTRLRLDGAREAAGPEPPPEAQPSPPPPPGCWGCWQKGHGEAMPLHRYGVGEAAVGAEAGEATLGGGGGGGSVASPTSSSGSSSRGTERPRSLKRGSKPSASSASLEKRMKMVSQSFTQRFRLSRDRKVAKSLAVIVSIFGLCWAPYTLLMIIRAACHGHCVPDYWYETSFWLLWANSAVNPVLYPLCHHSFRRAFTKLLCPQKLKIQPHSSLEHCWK
Sequence of human H1R (P35367 whole entry): as the sequence (P35367 whole entry) above

Take `c1ccc2c(c1)n(CCN1CCCCC1)c1ncnn21` [compound 15]: the H3R affinity result at Human H3R was “without H3R affinity”. Also, the “functional character in histamine stimulated InsP accumulation assays” value (from here on “functional character”) on hH1R is given as “inverse agonists”.
In the case of `NC1=NCC2c3ccccc3Cc3ccccc3N12` (stereo not drawn) [Epinastine], the Ki – broadly, a dissociation constant, usually derived from enzyme kinetics or from competition with a known ligand – at H1 receptor was no more than 10 µM.
For the molecule `c1ccc2c(c1)nc1n(CCN3CCCCC3)cnn21` [compound 13], the “functional character” value at hH1R is “inverse agonists”.
Regarding `c1ccc(Cc2ccccc2OC2CCNCC2)cc1` [compound 3], the “inhibition of histamine-induced effects” value on hH1R (tested against histamine (0.1 μM), InsP accumulation) is on record as “completely inhibit”.
With `CNCCCOc1cccc2ccccc12` [compound 9], at hH1R, the “functional character” value is “very weak partial agonist”. At hH1R (InsP accumulation, HEK293T hH1R), the intrinsic activity was 0.07.
Consider `CN1CCN(c2nc(N3CCCC3)c3cnn(C)c3n2)CC1` [compound 4], for which the “pKi H1R” value at human H1R is 7.21 ± 0.03.
`Cc1ccc(/C(=C\CN2CCCC2)c2ccccn2)cc1` [Triprolidine]: the Ki at H1 receptor is no more than 10 µM.
`c1cnc2c(c1)cc([C@@H]1CCCO1)n2CCN1CCCCC1` [compound 10]: the H3R affinity entry on Human H3R is “without H3R affinity”. Further, the “functional character” value on hH1R is reported as “inverse agonists”.
Regarding `CN(C)CCCN1c2ccccc2CCc2ccccc21` [Imipramine], the Ki at H1 receptor was no more than 10 µM.

The record behind these values is paper PMC3228891 (Journal of medicinal chemistry, 2011).
